Experimental data as given in patent publication US6855697B1, “Troxerutin with a high content of trihydroxyethylrutoside and process for its preparation” (Negma-Lerads, priority 1998, dated 2005).
Entries after “also recorded” stand apart in the source; their conditions may differ.

Test system: red blood cell aggregation
Test: Ex vivo inhibition of red blood cell aggregation on human blood
Type: cell-based
Text: This difference in efficacy was confirmed by the superiority of the enriched troxerutin according to the invention (trihydroxyethylrutoside content in the region of 95%) compared with commercially available troxerutins (content in the region of 84%). The advantage of decreasing the aggregation of red blood cells lies in a reduction in the total blood viscosity, and consequently in better fluidity of the blood. This property is manifested by an increase in the venous return and in the microcirculatory flow rate (increase in the density of the infused capillaries).

C[C@@H]1O[C@@H](OC[C@H]2O[C@@H](Oc3c(-c4ccc(OCCO)c(OCCO)c4)oc4cc(OCCO)cc(O)c4c3=O)[C@H](O)[C@@H](O)[C@@H]2O)[C@H](O)[C@H](O)[C@H]1O [trihydroxyethyl derivative, 7,3′,4′-trihydroxyethylrutoside]
Inhibition of red blood cell aggregation: significantly improved; also recorded: more effective than the tetrahydroxyethyl derivative

C[C@@H]1O[C@@H](OC[C@H]2O[C@@H](Oc3c(-c4ccc(OCCO)c(OCCO)c4)oc4cc(OCCO)cc(OCCO)c4c3=O)[C@H](O)[C@@H](O)[C@@H]2O)[C@H](O)[C@H](O)[C@H]1O [tetrahydroxyethyl derivative, 5,7,3′,4′-tetrahydroxyethylrutoside, reference compound]
Inhibition of red blood cell aggregation: significantly improved
